Test results: US9809587B2, “Pesticidally active heterocyclic derivatives with sulphur containing substituents” (Syngenta Participations AG, priority 2014, dated 2017)

Tests used:
Assay type in all cases: in vivo
[1] = tested on: Diabrotica balteata (Corn Root Worm); assay: Diabrotica balteata (corn root worm), sprayed maize sprouts; conditions: 96 h, application rate of 200 ppm, L2 larvae on maize sprouts, 4 days after infestation
Method: Example B2: Diabrotica balteata (Corn Root Worm)
Maize sprouts, placed on an agar layer in 24-well microtiter plates were treated with aqueous test solutions prepared from 10′000 ppm DMSO stock solutions by spraying. After drying, the plates were infested with L2 larvae (6 to 10 per well). The samples were assessed for mortality and growth inhibition in comparison to untreated samples 4 days after infestation.

[2] = tested on: Spodoptera littoralis (Egyqptian Cotton Leaf Worm); assay: Spodoptera littoralis (Egyptian cotton leaf worm), sprayed cotton leaf discs; conditions: foliar, 72 h, application rate of 200 ppm, L1 larvae on cotton leaf discs, 3 days after infestation
Method in brief: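 Cotton leaf discs on agar were sprayed with aqueous dilutions made from 10′000 ppm DMSO stocks, then infested after drying with five L1 larvae. Mortality, anti-feedant effect and growth inhibition were scored against untreated discs 3 days after infestation. Control means at least one of these exceeds the untreated sample.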

[3] = tested on: Spodoptera littoralis (Egyqptian Cotton Leaf Worm); assay: Spodoptera littoralis (Egyptian cotton leaf worm), compound in agar taken up by lettuce roots; conditions: 144 h, test rate of 12.5 ppm, uptake by lettuce roots from agar, 6 days after infestation, read-out: effect in at least one of the three categories (mortality, anti-feedancy, or growth inhibition)
Method in brief: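 Compound mixed into agar from a 10′000 ppm DMSO stock and taken up over 7 days by lettuce roots; cut leaves then infested with Spodoptera eggs. Mortality, anti-feedant effect and growth inhibition scored against untreated samples 6 days after infestation.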

[4] = tested on: Aedes aegypti (Yellow Fever Mosquito); assay: Activity against Aedes aegypti (yellow fever mosquito), dried deposits in tissue culture plates; conditions: application rate of 200 ppm in ethanol, adult females, after 48 h
Method: Example B12: Activity Against Aedes aegypti (Yellow Fever Mosquito)
Test solutions, at an application rate of 200 ppm in ethanol, were applied to 12-well tissue culture plates. Once the deposits were dry, five, two to five days old adult female Aedes aegypti were added to each well, and sustained with a 10% sucrose solution in a cotton wool plug. Assessment of knockdown was made one hour after introduction, and mortality was assessed at 24 and 48 hours after introduction.
The following compounds gave at least 80% control of Aedes aegypti after 48 h: […]

[5] = tested on: Myzus persicae (Green Peach Aphid); assay: Myzus persicae (green peach aphid), sprayed sunflower leaf discs; conditions: foliar, 144 h, application rate of 200 ppm, mixed ages on sunflower leaf discs, 6 days after infestation
Method: Example B4: Myzus persicae (Green Peach Aphid)
Sunflower leaf discs were placed on agar in a 24-well microtiter plate and sprayed with aqueous test solutions prepared from 10′000 ppm DMSO stock solutions. After drying, the leaf discs were infested with an aphid population of mixed ages. The samples were assessed for mortality 6 days after infestation.

[6] = tested on: Euschistus heros (Neotropical Brown Stink Bug); assay: Euschistus heros (neotropical brown stink bug), sprayed soybean leaf; conditions: 120 h, application rate of 200 ppm, N-2 nymphs on soybean leaf, 5 days after infestation
Method: Example B3: Euschistus heros (Neotropical Brown Stink Bug)
Soybean leaf on agar in 24-well microtiter plates were sprayed with aqueous test solutions prepared from 10′000 ppm DMSO stock solutions. After drying the leaf were infested with N-2 nymphs. The samples were assessed for mortality in comparison to untreated samples 5 days after infestation.

[7] = tested on: Bemisia tabaci (Cotton White Fly); assay: Bemisia tabaci (cotton white fly), sprayed cotton leaf discs; conditions: foliar, 144 h, application rate of 200 ppm, adult white flies on cotton leaf discs, 6 days after incubation
Method: Example B1: Bemisia tabaci (Cotton White Fly)
Cotton leaf discs were placed on agar in 24-well microtiter plates and sprayed with aqueous test solutions prepared from 10′000 ppm DMSO stock solutions. After drying the leaf discs were infested with adult white flies. The samples were checked for mortality 6 days after incubation.

[8] = tested on: Plutella xylostella (Diamond Back Moth); assay: Plutella xylostella (diamond back moth), treated artificial diet; conditions: 120 h, application rate of 200 ppm, L2 larvae on artificial diet, 5 days after infestation, read-out: effect in at least one of the two categories (mortality or growth inhibition)
Method in brief: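 Artificial diet treated with aqueous dilutions of DMSO stocks (10′000 ppm stock), dried, then infested with 10-15 L2 larvae per well. Mortality and growth inhibition assessed versus untreated controls 5 days after infestation.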

[9] = tested on: Myzus persicae (Green Peach Aphid); assay: Myzus persicae (green peach aphid), roots of pea seedlings in test solution; conditions: 144 h, test rate of 24 ppm, roots of infested pea seedlings in test solution, 6 days
Method: Example B5: Myzus persicae (Green Peach Aphid)
Roots of pea seedlings infested with an aphid population of mixed ages were placed directly in the aqueous test solutions prepared from 10′000 DMSO stock solutions. The samples were assessed for mortality 6 days after placing seedlings in test solutions.

[10] = tested on: Frankliniella occidentalis (Western Flower Thrips); assay: Frankliniella occidentalis (western flower thrips), sprayed sunflower leaf discs; conditions: foliar, 168 h, application rate of 200 ppm, mixed ages on sunflower leaf discs, 7 days after infestation
Method: Example B11: Frankliniella occidentalis (Western Flower Thrips)
Sunflower leaf discs were placed on agar in 24-well microtiter plates and sprayed with aqueous test solutions prepared from […] stock solutions. After drying the leaf discs were infested with a Frankliniella population of mixed ages. The samples were assessed for mortality 7 days after infestation.

CCS(=O)(=O)c1cc(-n2ccc(C(F)(F)F)n2)cnc1-c1nc2cc(C(F)(F)F)ncc2n1C [Compound P2, 2-[3-ethylsulfonyl-5-[3-(trifluoromethyl)pyrazol-1-yl]-2-pyridyl]-3-methyl-6-(trifluoromethyl)imidazo[4,5-c]pyridine]
≥ 80%: mortality at 200 ppm [1] | percent control (mortality, anti-feedant effect or growth inhibition) at 200 ppm [2] | percent control (mortality, anti-feedancy or growth inhibition) at 12.5 ppm [3] | pest or weed control at 200 ppm [4] | mortality at 200 ppm [5] | mortality at 200 ppm [6] | mortality at 200 ppm [7] | percent effect (mortality or growth inhibition) at 200 ppm [8]

CCS(=O)(=O)c1cc(-c2ccc(C(F)(F)F)nc2)cnc1-c1nc2cc(C(F)(F)F)ncc2n1C [Compound P5]
≥ 80%: mortality at 24 ppm [9] | mortality at 200 ppm [1] | percent control (mortality, anti-feedant effect or growth inhibition) at 200 ppm [2] | mortality at 200 ppm [10] | percent control (mortality, anti-feedancy or growth inhibition) at 12.5 ppm [3] | mortality at 200 ppm [5] | mortality at 200 ppm [6] | mortality at 200 ppm [7] | percent effect (mortality or growth inhibition) at 200 ppm [8]

CCS(=O)(=O)c1cc(-c2cccc[n+]2O)cnc1-c1nc2cc(C(F)(F)F)ncc2n1C [Compound P56]
≥ 80%: mortality at 24 ppm [9] | mortality at 200 ppm [1] | percent control (mortality, anti-feedant effect or growth inhibition) at 200 ppm [2] | mortality at 200 ppm [10] | percent control (mortality, anti-feedancy or growth inhibition) at 12.5 ppm [3] | mortality at 200 ppm [5] | mortality at 200 ppm [6] | percent effect (mortality or growth inhibition) at 200 ppm [8]

CCS(=O)(=O)c1cc(-c2ccnc(F)c2)cnc1-c1nc2cc(C(F)(F)F)ncc2n1C [Compound P70]
≥ 80%: mortality at 24 ppm [9] | mortality at 200 ppm [1] | percent control (mortality, anti-feedant effect or growth inhibition) at 200 ppm [2] | mortality at 200 ppm [10] | percent control (mortality, anti-feedancy or growth inhibition) at 12.5 ppm [3] | mortality at 200 ppm [5] | mortality at 200 ppm [6] | mortality at 200 ppm [7] | percent effect (mortality or growth inhibition) at 200 ppm [8]

CCS(=O)(=O)c1cc(-n2ccc(Cl)n2)cnc1-c1nc2cc(C(F)(F)F)ncc2n1C [Compound P88]
≥ 80%: mortality at 200 ppm [1] | percent control (mortality, anti-feedant effect or growth inhibition) at 200 ppm [2] | percent control (mortality, anti-feedancy or growth inhibition) at 12.5 ppm [3] | pest or weed control at 200 ppm [4] | mortality at 200 ppm [5] | mortality at 200 ppm [6] | mortality at 200 ppm [7] | percent effect (mortality or growth inhibition) at 200 ppm [8]

CCS(=O)(=O)c1cc(-c2ncccn2)ccc1-c1nc2cc(C(F)(F)F)ncc2n1C [Compound P89]
≥ 80%: mortality at 200 ppm [1] | percent control (mortality, anti-feedant effect or growth inhibition) at 200 ppm [2] | mortality at 200 ppm [10] | percent control (mortality, anti-feedancy or growth inhibition) at 12.5 ppm [3] | pest or weed control at 200 ppm [4] | mortality at 200 ppm [5] | mortality at 200 ppm [6] | percent effect (mortality or growth inhibition) at 200 ppm [8]

CCS(=O)(=O)c1cc(-n2ccc(C(F)(F)F)n2)ccc1-c1nc2cc(C(F)(F)F)ncc2n1C [Compound P90]
≥ 80%: mortality at 200 ppm [1] | percent control (mortality, anti-feedant effect or growth inhibition) at 200 ppm [2] | percent control (mortality, anti-feedancy or growth inhibition) at 12.5 ppm [3] | pest or weed control at 200 ppm [4] | mortality at 200 ppm [5] | mortality at 200 ppm [6] | mortality at 200 ppm [7] | percent effect (mortality or growth inhibition) at 200 ppm [8]

CCS(=O)(=O)c1cc(-c2cc(Cl)ccn2)cnc1-c1nc2cc(C(F)(F)F)ncc2n1C [Compound P92]
≥ 80%: mortality at 200 ppm [1] | percent control (mortality, anti-feedant effect or growth inhibition) at 200 ppm [2] | mortality at 200 ppm [10] | percent control (mortality, anti-feedancy or growth inhibition) at 12.5 ppm [3] | pest or weed control at 200 ppm [4] | mortality at 200 ppm [5] | mortality at 200 ppm [6] | percent effect (mortality or growth inhibition) at 200 ppm [8]

CCS(=O)(=O)c1cc(-c2cc(C#N)ccn2)cnc1-c1nc2cc(C(F)(F)F)ncc2n1C [Compound P93]
≥ 80%: mortality at 200 ppm [1] | percent control (mortality, anti-feedant effect or growth inhibition) at 200 ppm [2] | mortality at 200 ppm [10] | percent control (mortality, anti-feedancy or growth inhibition) at 12.5 ppm [3] | pest or weed control at 200 ppm [4] | mortality at 200 ppm [5] | mortality at 200 ppm [6] | percent effect (mortality or growth inhibition) at 200 ppm [8]

CCS(=O)(=O)c1cc(-c2ccc(Cl)nc2)cnc1-c1nc2cc(C(F)(F)F)ncc2n1C [Compound P96]
≥ 80%: mortality at 200 ppm [1] | percent control (mortality, anti-feedant effect or growth inhibition) at 200 ppm [2] | mortality at 200 ppm [10] | percent control (mortality, anti-feedancy or growth inhibition) at 12.5 ppm [3] | mortality at 200 ppm [5] | mortality at 200 ppm [6] | mortality at 200 ppm [7] | percent effect (mortality or growth inhibition) at 200 ppm [8]

CCS(=O)(=O)c1cc(-c2nccc(C#N)n2)cnc1-c1nc2cc(C(F)(F)F)ncc2n1C [Compound P101]
≥ 80%: mortality at 200 ppm [1] | percent control (mortality, anti-feedant effect or growth inhibition) at 200 ppm [2] | pest or weed control at 200 ppm [4] | mortality at 200 ppm [5] | mortality at 200 ppm [6] | percent effect (mortality or growth inhibition) at 200 ppm [8]

CCS(=O)(=O)c1cc(-c2ccnc(C(F)(F)F)n2)cnc1-c1nc2cc(C(F)(F)F)ncc2n1C [Compound P108]
≥ 80%: mortality at 200 ppm [1] | percent control (mortality, anti-feedant effect or growth inhibition) at 200 ppm [2] | percent control (mortality, anti-feedancy or growth inhibition) at 12.5 ppm [3] | pest or weed control at 200 ppm [4] | mortality at 200 ppm [5] | mortality at 200 ppm [6] | mortality at 200 ppm [7] | percent effect (mortality or growth inhibition) at 200 ppm [8]
